According to publication PMC10977697 (PLOS ONE, 2024):
Bridges are numbered along the chain shown (N, C = ends). Where no end group is shown, it is not given here.

What follows are substances tested on PCSK9 (assay: not given). Conditions: ratio of signal for target protein over BSA background.
Format: binding, human

| Substance | s/n ratio |
| --- | --- |
| GPTQSKYGMCGGIGYSGPTVCASGTTCQVLDPYTSQCLPGAS (disulfide 10-27, 21-37 (inferred)) [PCSK9FL_CBD2] | 26.8 |
| GPTQSNYGMCGGIGYSGPTVCASGTTCQVLYPTTSRCLPGAS (also: bicyclic or more (positions not given here)) [PCSK9FL_CBD1] | 17.7 |

Same assay, conditions: spot phage ELISA signal-to-noise on PCSK9

| Substance | S/N |
| --- | --- |
| GCGYWFYEWFCKQDSDCLAGCVCDPNGFCG (disulfide (positions not given here)) [PCSK9 EET I-II 20] | 9.0 |
| GCGYWWKHWFCKQDSDCLAGCVCGPNGFCG (disulfide (positions not given here)) [PCSK9 EET I-II 10] | 12.1 |
| GCGYWWKQWFCKQDSDCLAGCVCGPNGFCG (disulfide (positions not given here)) [PCSK9 EET I-II 17] | 17.6 |
| GCGYWWRQWFCKQGSDCLAGCVCGPNGFCG (disulfide (positions not given here)) [PCSK9 EET I-II 7] | 20.9 |
| GCGYWWSTWFCKQDSDCLAGCVCGPNGFCG (disulfide (positions not given here)) [PCSK9 EET I-II 4] | 15.0 |
| GCGYWWVQWFCKQDSDCLAGCVCGPNGFCD (disulfide (positions not given here)) [PCSK9 EET I-II 11] | 19.1 |
| GCGYWWVQWFCKQDSDCLAGCVCGPNGFCD (disulfide (positions not given here)) [PCSK9 EET I-II 18] | 20.1 |
| GCGYWYRIWFCKQDSDCLAGCVCGPNGFCG (disulfide (positions not given here)) [PCSK9 EET I-II 9] | 9.4 |
| GCGYWYRVWFCKQDSDCLAGCVCQEPGPCG (disulfide (positions not given here)) [PCSK9 EET I-II 3] | 6.4 |
| GCHEGYWWRQWFCKQDSDCLAGCVCGPNGFCG (disulfide (positions not given here)) [PCSK9 EET I-II 19] | 20.5 |
| GCNLGYWWKQWFCKQDSDCLAGCVCERPRDCG (disulfide (positions not given here)) [PCSK9 EET I-II 2] | 6.1 |
| GCQQGYWWWYWFCKQDSDCLAGCVCGPNGFCG (disulfide (positions not given here)) [PCSK9 EET I-II 13] | 26.0 |
| GCSWVPYWCKQDSDCLAGCVCWEMVWCD (disulfide (positions not given here)) [PCSK9 EET I-II 6] | 7.0 |
| GCWWWGRIHCKQDSDCLAGWGQHCG (disulfide (positions not given here)) [PCSK9 EET I-II 15] | 44.9 |
| GCYHGYWYITWFCKQDSDCLAGCVCSQDEQCG (disulfide (positions not given here)) [PCSK9 EET I-II 14] | 17.0 |
| GPAHSLFGMCGGIDYSGPTVCASGTTCHVLNPTTSHCLPRAS (disulfide (positions not given here)) [PCSK9 CBD 8] | 5.0 |
| GPTHSTYGQCGGIGYSGQSVCASGTTCQVLWAALSWCLPGAS (disulfide (positions not given here)) [PCSK9 CBD 12] | 7.8 |
| GPTQSAFGPCGGIGYSGPTVCASGTTCQVLSPDVSQCLPGAS (disulfide (positions not given here)) [PCSK9 CBD 5] | 2.6 |
| GPTQSAYGQCGGIGYSGPTVCASGTTCQVLWPQVSWCLPGAS (disulfide (positions not given here)) [PCSK9 CBD 23] | 13.9 |
| GPTQSDYGMCGGIGYSGPTVCASGTTCQVLDPYTSQCLPGAS (disulfide (positions not given here)) [PCSK9 CBD 28] | 14.2 |
| GPTQSEYGMCGGIGYSGPTVCASGTTCQVLDPMTSQCLPGAS (disulfide (positions not given here)) [PCSK9 CBD 3] | 2.6 |

| Substance | S/N |
| --- | --- |
| GPTQSEYGMCGGIGYSGPTVCASGTTCQVLDPTTSQCLPGAS (disulfide (positions not given here)) [PCSK9 CBD 10] | 7.2 |
| GPTQSEYGMCGGIGYSGPTVCASGTTCQVLDPTTSQCLPGAS (disulfide (positions not given here)) [PCSK9 CBD 17] | 11.3 |
| GPTQSHYGLCGGIGYSGPTVCASGTTCQVLSPEFSQCLPGAS (disulfide (positions not given here)) [PCSK9 CBD 13] | 8.0 |
| GPTQSKYGMCGGIGYSGPTVCASGTTCQVLDPYTSQCLPGAS (disulfide (positions not given here)) [PCSK9 CBD 14] | 8.8 |
| GPTQSLFGMCGGIGYSGPTVCASGTTCQVLYPTTSRCLPGAS (disulfide (positions not given here)) [PCSK9 CBD 20] | 18.0 |
| GPTQSMCGMCGGIGYSGPTVCASGTTCQVLDPHTSQCLPGAS (disulfide (positions not given here)) [PCSK9 CBD 18] | 14.0 |
| GPTQSMYGMCGGIGYSGPTVCASGTTCQVLDPNTSQCLPGAS (disulfide (positions not given here)) [PCSK9 CBD 11] | 6.9 |
| GPTQSNYGMCGGIGYSGPTVCASGTTCQVLYPTTSRCLPGAS (disulfide (positions not given here)) [PCSK9 CBD 1] | 17.7 |
| GPTQSNYGMCGGIGYSGPTVCASGTTCQVLqPSTSRCLPGAS (disulfide) [PCSK9 CBD 16] | 11.6 |
| GPTQSNYGQCGGIGYSGPTVCASGTTCQVLWPAMSWCLPGAS (disulfide (positions not given here)) [PCSK9 CBD 15] | 14.0 |
| GPTQSNYGQCGGIGYSGPTVCASGTTCQVLqPAMSWCLPGAS (disulfide) [PCSK9 CBD 21] | 18.7 |
| GPTQSPGGICGGIGYSGPTVCASGTTCQVLSPEYSQCLPGAS (disulfide (positions not given here)) [PCSK9 CBD 19] | 15.8 |
| GPTQSQFGMCGGIGYSGPTVCASGTTCQVLDPTTSQCLPGAS (disulfide (positions not given here)) [PCSK9 CBD 2] | 2.5 |
| GPTQSTCGQCGGIGYSGPTVCASGTTCQVLWPTLSWCLPGAS (disulfide (positions not given here)) [PCSK9 CBD 27] | 20.8 |
| GPTQSTYGQCGGIGYSGPTVCASGTTCQVLGPALSWCLPGAS (disulfide (positions not given here)) [PCSK9 CBD 9] | 5.2 |
| GPTQSTYGQCGGIGYSGPTVCASGTTCQVLWPALSWCLPGAS (disulfide (positions not given here)) [PCSK9 CBD 22] | 15.0 |
| GPTQSTYGQCGGIGYSGPTVCASGTTCQVLWPALSWCLPGAS (disulfide (positions not given here)) [PCSK9 CBD 26] | 21.5 |
| GPTQSTYGRCGGIGYSGPTVCASGTTCQVLWPALSWCLPGAS (disulfide (positions not given here)) [PCSK9 CBD 4] | 3.7 |
| GPTQSVHGMCGGIGYSGPTVCASGTTCQVLDPFTSQCLPGAS (disulfide (positions not given here)) [PCSK9 CBD 24] | 14.8 |
| GPTQSVYGMCGGIGYSGPTVCASGTTCQVLDPTTSQCLPGAS (disulfide (positions not given here)) [PCSK9 CBD 25] | 14.9 |
| GPTQSYGQCGGIGYSGPTVCASGTTCQVLWPQVSWCLPGAST (disulfide (positions not given here)) [PCSK9 CBD 6] | 2.9 |

These substances were tested on ApoL1 (assay: Spot phage ELISA, ApoL1). Conditions: ratio of signal for target protein over BSA background.
Format: binding, human

| Substance | S/N |
| --- | --- |
| GCAFQFYLCKQDSDCLAGCVCGGTQSCG (also: bicyclic or more (positions not given here)) [ApoL1 EET I-II 38] | 11.5 |
| GCAFRRHVCKQDSDCLAGCVCDKSDGCG (also: bicyclic or more (positions not given here)) [ApoL1 EET I-II 25] | 25.7 |
| GCGFWKWMHGCKQDSDCLAGCVCGPNGFCG (also: bicyclic or more (positions not given here)) [ApoL1 EET I-II 46] | 3.9 |
| GCHFKVWWCKQDSDCLAGCVCDPAVICG (also: bicyclic or more (positions not given here)) [ApoL1 EET I-II 44] | 6.1 |
| GCHYRRNRWEQACKQDSDCLAGCVCQGMPKCG (also: bicyclic or more (positions not given here)) [ApoL1 EET I-II 18] | 38.3 |
| GCKFAKARCKQDSDCLAGCVCSPVRKCG (also: bicyclic or more (positions not given here)) [ApoL1 EET I-II 10] | 42.7 |
| GCKFHLWFCKQDSDCLAGCVCDPNGFCS (also: bicyclic or more (positions not given here)) [ApoL1 EET I-II 33] | 15.3 |
| GCKFKAHSCKQDSDCLAGCVCSGQDPGCG (also: bicyclic or more (positions not given here)) [ApoL1 EET I-II 30] | 18.9 |
| GCKFKCKQDSDCLAGCVCGHYDHCG (also: bicyclic or more (positions not given here)) [ApoL1 EET I-II 28] | 23.6 |
| GCKFKEWFCKQDSDCLAGCVCEHSQSCG (also: bicyclic or more (positions not given here)) [ApoL1 EET I-II 20] | 36.0 |
| GCKFKHFLCKQDSDCLAGCVCDDLQNCG (also: bicyclic or more (positions not given here)) [ApoL1 EET I-II 9] | 43.0 |
| GCKFKHWYCKQDSDCLAGCVCCPPNHYG [ApoL1 EET I-II 11] | 41.1 |
| GCKFKRHMCKQDSDCLAGCVCTVKQNCG (also: bicyclic or more (positions not given here)) [ApoL1 EET I-II 41] | 8.3 |
| GCKFKRWTCKQDSDCLAGCVCEQPGMCG (also: bicyclic or more (positions not given here)) [ApoL1 EET I-II 19] | 37.0 |
| GCKFKSFTCKQDSDCLAGCVCWDQDTCG (also: bicyclic or more (positions not given here)) [ApoL1 EET I-II 7] | 44.3 |
| GCKFKWHFCKQDSDCLAGCVCQPHETCG (also: bicyclic or more (positions not given here)) [ApoL1 EET I-II 36] | 12.4 |
